Tests used:
SlPOR3 = biological target: T1, SlPOR3 (Solanum lycopersicum, UniProt A0A3Q7J565); assay: […] K Pchlide fluorescence in darkness, F648/F635 ratio vs NADPH, hyperbolic fit; assay type: binding; details: lipid-free; 5 μM Pchlide, 15 μM LPOR, pH 7.1, room-temperature dark incubation; apparent parameter, exact value in supplement; read-out: KM^D
T1 construct: gene LOC101248079; transit peptide removed; pET15b
T1 sequence (A0A3Q7J565 63-397): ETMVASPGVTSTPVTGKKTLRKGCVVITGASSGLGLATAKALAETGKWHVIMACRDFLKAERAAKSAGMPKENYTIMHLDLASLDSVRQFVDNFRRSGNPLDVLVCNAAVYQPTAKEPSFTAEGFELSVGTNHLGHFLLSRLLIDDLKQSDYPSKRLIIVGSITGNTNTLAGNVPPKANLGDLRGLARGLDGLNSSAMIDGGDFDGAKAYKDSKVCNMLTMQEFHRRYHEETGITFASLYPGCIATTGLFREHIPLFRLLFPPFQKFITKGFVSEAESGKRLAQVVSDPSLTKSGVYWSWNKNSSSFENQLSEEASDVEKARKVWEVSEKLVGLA

TaPOR1 = biological target: T2, TaPOR1 (Triticum aestivum, UniProt Q41578); assay: as above; assay type: binding; details: lipid-free; 5 μM Pchlide, 15 μM LPOR, pH 7.1, room-temperature dark incubation; apparent parameter, exact value in supplement; read-out: KM^D
T2 construct: gene PORA
T2 sequence (Q41578 75-388): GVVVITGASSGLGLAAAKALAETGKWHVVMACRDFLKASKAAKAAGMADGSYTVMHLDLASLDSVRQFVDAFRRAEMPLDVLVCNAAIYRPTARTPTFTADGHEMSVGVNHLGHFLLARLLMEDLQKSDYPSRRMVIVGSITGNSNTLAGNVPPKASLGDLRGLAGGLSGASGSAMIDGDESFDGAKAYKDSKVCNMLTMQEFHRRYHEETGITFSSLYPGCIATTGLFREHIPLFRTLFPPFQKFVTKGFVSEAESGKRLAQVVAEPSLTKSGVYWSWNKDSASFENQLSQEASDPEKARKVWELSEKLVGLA

AtPORC = biological target: T3, AtPORC (Arabidopsis thaliana, UniProt O48741); assay: biochemical; details: 400 uM OPT lipids, 5 uM Pchlide, 15 uM LPOR
T3 construct: gene PORC
T3 sequence (O48741 68-401): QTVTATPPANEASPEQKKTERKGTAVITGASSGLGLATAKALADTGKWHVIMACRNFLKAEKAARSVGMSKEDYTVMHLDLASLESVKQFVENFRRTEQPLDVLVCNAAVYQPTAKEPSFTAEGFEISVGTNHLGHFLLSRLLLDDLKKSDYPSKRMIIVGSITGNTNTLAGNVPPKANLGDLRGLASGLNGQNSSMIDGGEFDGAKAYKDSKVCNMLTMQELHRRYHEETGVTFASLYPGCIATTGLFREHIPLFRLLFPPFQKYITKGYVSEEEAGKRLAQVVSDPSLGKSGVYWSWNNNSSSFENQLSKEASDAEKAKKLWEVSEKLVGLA
Procedure: (§1) (Figs. 3A, S2). […] The resulting plots resembled saturation curves, to which a hyperbolic function similar to the Michaelis–Menten equation could be fitted (Figs. 3B, S3, Materials and Methods). […] However, KM^L values were consistently lower than KM^D values. […] The addition of 400 μM OPT lipids lowered the KM^D constant for all isoforms, except for SlPOR1, SlPOR3, HaPOR1, HaPOR2, and PeaPOR, where the constant remained unchanged within error estimates. […] Shaded areas represent the SD between replicates. […] A fit of a modified Michaelis–Menten equation is shown, along with the graphical representation of KM^D (B) or KM^L (C). Spectra corresponding to the given F648/F635 values (B) or F Chlide/F Pchlide values (C) are shown on the right side of the plot. D, relationship between KM^D and KM^L for investigated isoforms. The overall distribution of data points is shown in gray. Error bars represent the uncertainty associated with the fitted constant KM^x. Closed symbols represent constants determined for samples not supplemented with lipids, while open symbols these determined in the presence of 400 μM OPT lipids. LPOR, light-dependent protochlorophyllide oxidoreductase; Pchlide, protochlorophyllide; Chlide, chlorophyllide.

HaPOR3 = biological target: T4, HaPOR3 (Helianthus annuus, UniProt A0A251UT40); assay: biochemical; details: 400 uM OPT lipids, 5 uM Pchlide, 15 uM LPOR
T4 construct: gene POR; transit peptide removed; pET15b
T4 sequence (A0A251UT40 51-384): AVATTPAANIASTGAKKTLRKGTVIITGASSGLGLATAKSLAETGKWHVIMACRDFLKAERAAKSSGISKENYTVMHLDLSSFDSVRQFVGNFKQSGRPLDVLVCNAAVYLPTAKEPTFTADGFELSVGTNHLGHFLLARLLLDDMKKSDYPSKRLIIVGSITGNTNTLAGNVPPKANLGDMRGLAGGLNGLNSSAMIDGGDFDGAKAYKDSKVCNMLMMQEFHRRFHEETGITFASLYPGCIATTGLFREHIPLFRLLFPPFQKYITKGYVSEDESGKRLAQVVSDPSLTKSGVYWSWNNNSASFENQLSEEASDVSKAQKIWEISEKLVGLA
Procedure: as §1

PeaPOR = biological target: T5, PeaPOR (Lathyrus oleraceus, UniProt Q01289); assay: biochemical; details: 5 uM Pchlide, 15 uM LPOR
T5 construct: gene 3PCR; transit peptide removed; pET15b
T5 sequence (Q01289 65-399): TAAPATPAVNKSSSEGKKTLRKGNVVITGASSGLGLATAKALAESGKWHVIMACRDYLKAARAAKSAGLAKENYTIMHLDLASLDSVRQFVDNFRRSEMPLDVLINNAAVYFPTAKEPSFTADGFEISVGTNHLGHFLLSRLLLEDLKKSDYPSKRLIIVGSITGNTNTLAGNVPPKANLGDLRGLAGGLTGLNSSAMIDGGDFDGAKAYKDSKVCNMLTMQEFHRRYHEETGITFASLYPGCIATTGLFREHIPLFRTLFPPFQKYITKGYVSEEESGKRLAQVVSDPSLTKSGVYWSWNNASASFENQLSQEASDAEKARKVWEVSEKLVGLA
Procedure: as §1

AtPORB = biological target: T6, AtPORB (Arabidopsis thaliana, UniProt P21218); assay: […] K Pchlide fluorescence in darkness, F648/F635 ratio vs NADPH, hyperbolic fit; assay type: binding; details: lipid-free; 5 μM Pchlide, 15 μM LPOR, pH 7.1, room-temperature dark incubation; apparent parameter, exact value in supplement; read-out: KM^D
T6 construct: gene PORB
T6 sequence (P21218 67-401): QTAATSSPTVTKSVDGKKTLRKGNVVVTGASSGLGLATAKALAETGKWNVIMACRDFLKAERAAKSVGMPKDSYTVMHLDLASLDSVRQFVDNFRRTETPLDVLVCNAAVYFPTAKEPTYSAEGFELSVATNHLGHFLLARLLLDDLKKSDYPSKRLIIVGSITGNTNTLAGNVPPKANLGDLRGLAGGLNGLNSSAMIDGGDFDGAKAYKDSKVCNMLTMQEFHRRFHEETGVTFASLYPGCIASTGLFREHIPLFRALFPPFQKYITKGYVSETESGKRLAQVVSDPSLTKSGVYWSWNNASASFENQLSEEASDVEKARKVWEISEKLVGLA

Kd (SlPOR3): < 10 µM
Kd (TaPOR1): > 100 µM
Michaelis-like constant in the dark (KM^D) (AtPORC): 0.8 µM
apparent Michaelis constant in dark (KM^D) (HaPOR3): 3.9 µM
apparent Michaelis constant in the dark (KM^D) (PeaPOR; 400 uM OPT lipids): 4.7 µM
Michaelis constant in the dark (KM^D) (PeaPOR; no lipids): 10.8 µM
Kd (AtPORB): > 100 µM
SMILES: NC(=O)C1=CN([C@@H]2O[C@H](COP(=O)(O)OP(=O)(O)OC[C@H]3O[C@@H](n4cnc5c(N)ncnc54)[C@H](OP(=O)(O)O)[C@@H]3O)[C@@H](O)[C@H]2O)C=CC1 [NADPH]

— paper PMC11930087, “Mobility of four structural regions drives isoform-specific properties of photoenzyme LPOR in plants” (The Journal of Biological Chemistry, 2025)
